Test results published in US20110224276A1, “OPTICAL ISOMER OF PHENYLPROPIONIC ACID AND ITS MEDICINAL USE” (priority 2008, published 2011).
Where “and” joins values, the source holds several entries; their conditions need not be identical. Equal entries are not always repeated.

Experiments:
[1] = system: ICR mice; test: in vivo
Text: (§1) Each tested group includes 5 dose-groups during the tests as follows:
Intraperitoneal injection (ip)
(3) Observed periods: 14 days.

[2] = system: ICR mice; test: in vivo; remark: listed apart in the source
Text: as §1
Intragastric administration (ig)
(3) Observed periods: 14 days

[3] = system: SD rats; test: long-term toxicity test in SD rats, thirteen-week consecutive intragastric administration and four-week convalescence; details: rats
Procedure: 2. […] The tested samples are formulated into suspensions by milling with 0.5% CMC—Na; intragastric administration (10 ml/kg) every day for consecutive 13 weeks; on each day, after administration, the general conditions of the animals are observed, and weight and amount of ingestion are determined once every week. In 24 hours after the last administration, half of rats in each tested group are fasted overnight, blood samples are withdrawn via femoral arteries, and the rats are dissected, and the indexes of blood cytology and biochemics, gloss anatomy and histopathological examination are preformed. The administration to remaining half rats is stopped, and the convalescence is observed; general conditions are observed and weight and amount of ingestion are determined once every week. After 4 weeks, the observation is complete, and the half of rats in each tested group are fasted overnight, blood samples are withdrawn via femoral arteries, and the rats are dissected, and the indexes of blood cytology and biochemics, gloss anatomy and histopathological examination are preformed.

[4] = target: T1, 5-Lox (human recombinant) (Homo sapiens, UniProt P09917); test: inhibiting activity to 5-lipoxygenase (500 nm); type: biochemical; details: tested at 300, 100, 30, 10 μmol/L (positive control 100, 30, 10, 3)
T1 construct: purchased Cayman, USA
T1 sequence (P09917 1-674): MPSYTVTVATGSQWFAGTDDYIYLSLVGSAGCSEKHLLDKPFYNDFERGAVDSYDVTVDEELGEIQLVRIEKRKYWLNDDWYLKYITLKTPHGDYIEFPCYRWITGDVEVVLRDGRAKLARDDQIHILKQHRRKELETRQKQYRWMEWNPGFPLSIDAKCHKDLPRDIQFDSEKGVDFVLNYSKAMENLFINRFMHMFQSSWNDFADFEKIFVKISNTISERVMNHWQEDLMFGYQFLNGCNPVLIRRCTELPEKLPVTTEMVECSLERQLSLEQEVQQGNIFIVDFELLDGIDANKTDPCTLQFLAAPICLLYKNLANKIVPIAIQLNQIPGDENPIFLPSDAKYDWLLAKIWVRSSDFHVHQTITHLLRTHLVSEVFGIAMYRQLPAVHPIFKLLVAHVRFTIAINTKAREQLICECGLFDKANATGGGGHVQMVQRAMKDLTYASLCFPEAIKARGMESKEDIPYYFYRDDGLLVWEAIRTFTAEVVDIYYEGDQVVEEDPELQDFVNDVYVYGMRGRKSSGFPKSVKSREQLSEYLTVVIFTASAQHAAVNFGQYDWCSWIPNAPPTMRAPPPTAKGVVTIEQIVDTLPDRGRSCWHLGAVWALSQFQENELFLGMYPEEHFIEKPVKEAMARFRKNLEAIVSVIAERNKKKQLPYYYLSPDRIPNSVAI
Text: (§2) Fitting data of concentration (μmol/L) and corresponding inhibition rate (%) via Microsoft EXCEL software to get a trendline, so as to obtain the half-effective inhibiting concentration (IC50) of each tested enzyme.

[5] = target: T2, Cox-1 (Ovis aries, UniProt P05979); test: inhibiting activity to COX-1 (TMPD colorimetric, 590 nm); type: biochemical; details: tested at 300, 100, 30, 10 μmol/L (positive control 100, 30, 10, 3)
T2 construct: purchased Cayman, USA
T2 sequence (P05979 25-600): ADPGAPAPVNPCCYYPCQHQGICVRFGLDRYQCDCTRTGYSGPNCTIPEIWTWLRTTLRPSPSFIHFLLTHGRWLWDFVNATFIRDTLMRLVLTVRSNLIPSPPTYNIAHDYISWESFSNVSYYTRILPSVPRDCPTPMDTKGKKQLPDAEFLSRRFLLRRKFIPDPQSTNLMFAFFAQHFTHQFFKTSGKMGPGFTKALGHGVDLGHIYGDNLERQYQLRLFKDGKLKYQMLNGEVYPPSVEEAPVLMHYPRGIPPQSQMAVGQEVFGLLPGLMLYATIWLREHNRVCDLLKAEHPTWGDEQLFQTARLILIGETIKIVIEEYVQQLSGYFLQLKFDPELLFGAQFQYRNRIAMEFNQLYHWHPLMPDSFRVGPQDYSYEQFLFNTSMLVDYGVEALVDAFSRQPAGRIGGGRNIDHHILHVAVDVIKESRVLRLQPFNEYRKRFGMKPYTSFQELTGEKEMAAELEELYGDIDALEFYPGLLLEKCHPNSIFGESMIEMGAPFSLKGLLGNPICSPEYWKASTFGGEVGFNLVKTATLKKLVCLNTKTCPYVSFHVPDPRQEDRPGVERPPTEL
Procedure: (§3) 2.5.1 The Inhibiting Activity to COX-1/COX-2
(§4) (1) In 220 ul of reaction system, mixed buffer (1×), heme, COX-1/COX-2, and the compound to be tested, are sequentially added, and are incubated for 5 minutes at 25° C.;
(§5) (2) Adding chromogenic substrate (TMPD) and arachidonic acid;
(§6) (3) Carefully shaking the plate for several seconds, then incubating for 15 minutes at 25° C.;
(§7) (4) Detecting absorption value at 590 nm.
as §2

[6] = target: T3, Cox-2 (Homo sapiens, UniProt P35354); test: inhibiting activity to COX-2 (TMPD colorimetric, 590 nm); type: biochemical; details: tested at 300, 100, 30, 10 μmol/L (positive control 100, 30, 10, 3)
T3 construct: purchased Cayman, USA
T3 sequence (P35354 18-604): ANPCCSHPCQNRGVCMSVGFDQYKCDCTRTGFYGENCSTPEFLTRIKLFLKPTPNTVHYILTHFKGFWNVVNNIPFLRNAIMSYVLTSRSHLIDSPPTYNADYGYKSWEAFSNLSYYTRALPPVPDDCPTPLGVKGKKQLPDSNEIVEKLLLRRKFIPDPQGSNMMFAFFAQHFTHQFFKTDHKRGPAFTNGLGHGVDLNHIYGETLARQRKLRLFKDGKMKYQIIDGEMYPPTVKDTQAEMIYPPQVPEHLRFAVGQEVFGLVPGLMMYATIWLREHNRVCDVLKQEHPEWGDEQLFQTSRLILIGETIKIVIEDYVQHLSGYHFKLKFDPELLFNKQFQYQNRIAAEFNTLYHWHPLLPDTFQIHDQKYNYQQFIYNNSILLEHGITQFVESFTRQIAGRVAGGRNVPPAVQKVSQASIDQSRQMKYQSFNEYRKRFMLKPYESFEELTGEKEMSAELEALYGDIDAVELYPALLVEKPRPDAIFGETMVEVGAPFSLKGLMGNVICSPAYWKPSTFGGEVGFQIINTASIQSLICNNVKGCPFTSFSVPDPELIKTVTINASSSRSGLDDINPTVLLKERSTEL
Procedure: as §3, §4, §5, §6, §7, §2

[7] = system: SD rats; test: toxicity test in SD rats, four-week consecutive intragastric administration; details: rats
Procedure: 2. […] The tested samples are formulated into suspensions by milling with 0.5% CMC—Na; intragastric administration every day (10 ml/kg) for consecutive 4 weeks; on each day, after administration, the general conditions of the animals are observed, and weight and amount of ingestion are determined once every week. In 24 hours after the last administration, the rats are fasted overnight, blood samples are withdrawn via femoral arteries, and the rats are dissected, and the indexes of blood cytology and biochemics, gloss anatomy and histopathological examination are preformed.

**Q.** Which “Com. Vs. S (multiple)” value ([1]; LD50 ip compared with S) does the source give for “R-10,11-dihydro-alpha-methyl-10-oxo-dibenzo[b,f]tiazem-2-acetic acid:S-10,11-dihydro-alpha-methyl-10-oxo-dibenzo[b,f]tiazem-2-acetic acid (6:1) [S:R = 1:6]” here?
**A.** 2.5 multiple

**Q.** And the “LD50” value ([1]; mice, ip, single dose, 14 days observation, Bliss method)?
**A.** 497.6 ± 28.6 mg/kg

**Q.** What about the “Com. Vs. S (multiple)” value ([2]; LD50 ig compared with S) of the same substance?
**A.** 4.2 multiple

**Q.** And the “LD50” value ([2]; mice, ig, single dose, 14 days observation, Bliss method)?
**A.** 1138.5 ± 80.3 mg/kg and 1138.5 mg/kg

**Q.** And the gastrointestinal tract toxicity ([3]; 13-week ig, S 50, 25, RS 50, R 400, 200, 100, R:S=6:1 200, 100, 50 mg/kg)?
**A.** not produce significant gastrointestinal tract toxicity

**Q.** And the nontoxic dosage ([3]; 13-week consecutive intragastric administration)?
**A.** 100 mg/kg

**Q.** What about the IC50 [4] of the same substance?
**A.** 18.6 µM

**Q.** What about the IC50 [5] of the same substance?
**A.** 70.3 µM

**Q.** What about the IC50 [6] of the same substance?
**A.** 5.2 µM

**Q.** What about the gastrointestinal tract toxicity ([7]; four-week ig, S 80, 40, RS 80, R 480, 240, 120, R:S=6:1 320, 160, 80 mg/kg) of the same substance?
**A.** do not produce significant gastrointestinal tract toxicity

**Q.** What about the nontoxic dosage ([7]; four-week consecutive intragastric administration) of the same substance?
**A.** 160 mg/kg
